Test results published in patent EP3868759A1, “2,3,5-SUBSTITUTED PYRROLO[2,3-B]PYRIDINES AS ERBB MODULATORS USEFUL FOR TREATING CANCER” (PearlRiver Bio GmbH, priority 2020, dated 2021).

Experiments:
EGFR L858R = EGFR L858R (Homo sapiens, UniProt P00533, L858R); test: Lance assay, EGFR L858R; conditions: biochemical Lance assay
EGFR T790M L858R = EGFR T790M L858R (Homo sapiens, UniProt P00533, L858R/T790M); test: Lance assay, EGFR T790M L858R; conditions: biochemical Lance assay
[1] = test system: EGFR Exon 20 InsNPH Ba/F3; test: CellTiter-Glo cell viability, EGFR Exon 20 InsNPH Ba/F3; format: cell-based; conditions: Mus musculus, BaF3, 72 h, read-out: EGFR Exon 20 InsNPH Ba/F3 CTG IC50
Method: (§1) The CellTiter-Glo Luminescent Cell Viability Assay (Promega) is a homogeneous method of determining the number of viable cells in culture. It is based on quantification of ATP, indicating the presence of metabolically active cells. Cells are seeded on day 1 at cell numbers that assure assay linearity and optimal signal intensity. After incubation for 24h in humidified chambers at 37°C and 5% CO2, compounds in DMSO are added at different concentrations. Cells are further incubated for 72 h at 37°C and 5% CO2. Cells treated with the compound vehicle DMSO are used as positive controls and cells treated with 10 µM Staurosporine serve as negative controls. At day 5 the CellTiter Glo Reagent is prepared according to the instructions of the kit (Promega Inc.): Reagent is mixed 1:1 with cell culture medium. Thereon, mixture and assay plates are equilibrated at room temperature for 20 min. Equal volumes of the reagent-medium-mixture is added to the volume of culture medium present in each well. The plates are mixed at ∼200 rpm for 2 minutes on an orbital shaker. The microplates are then incubated at room temperature for 10 minutes for stabilization of the luminescent signal. Following incubation the luminescence is recorded on a Victor microplate reader (Perkin Elmer) using a 200 ms integration time. The data is then analyzed with Excel using the XLFIT Plugin (dose response Fit 205) for IC50-determination. As quality control the Z'-factor is calculated from 16 positive and negative control values. Only assay results showing a Z'-factor ≥ 0.5 are used for further analysis.

EGFR vIII Ba/F3 = test: CellTiter-Glo cell viability, EGFR vIII Ba/F3; format: cell-based; conditions: Mus musculus, BaF3, 72 h, read-out: EGFR vIII Ba/F3 CTG IC50 /
Method: as §1

EGFR wt = EGFR wt (Homo sapiens, UniProt P00533); test: Lance assay, EGFR wt; conditions: biochemical Lance assay
Sequence of EGFR wt (P00533 25-1210): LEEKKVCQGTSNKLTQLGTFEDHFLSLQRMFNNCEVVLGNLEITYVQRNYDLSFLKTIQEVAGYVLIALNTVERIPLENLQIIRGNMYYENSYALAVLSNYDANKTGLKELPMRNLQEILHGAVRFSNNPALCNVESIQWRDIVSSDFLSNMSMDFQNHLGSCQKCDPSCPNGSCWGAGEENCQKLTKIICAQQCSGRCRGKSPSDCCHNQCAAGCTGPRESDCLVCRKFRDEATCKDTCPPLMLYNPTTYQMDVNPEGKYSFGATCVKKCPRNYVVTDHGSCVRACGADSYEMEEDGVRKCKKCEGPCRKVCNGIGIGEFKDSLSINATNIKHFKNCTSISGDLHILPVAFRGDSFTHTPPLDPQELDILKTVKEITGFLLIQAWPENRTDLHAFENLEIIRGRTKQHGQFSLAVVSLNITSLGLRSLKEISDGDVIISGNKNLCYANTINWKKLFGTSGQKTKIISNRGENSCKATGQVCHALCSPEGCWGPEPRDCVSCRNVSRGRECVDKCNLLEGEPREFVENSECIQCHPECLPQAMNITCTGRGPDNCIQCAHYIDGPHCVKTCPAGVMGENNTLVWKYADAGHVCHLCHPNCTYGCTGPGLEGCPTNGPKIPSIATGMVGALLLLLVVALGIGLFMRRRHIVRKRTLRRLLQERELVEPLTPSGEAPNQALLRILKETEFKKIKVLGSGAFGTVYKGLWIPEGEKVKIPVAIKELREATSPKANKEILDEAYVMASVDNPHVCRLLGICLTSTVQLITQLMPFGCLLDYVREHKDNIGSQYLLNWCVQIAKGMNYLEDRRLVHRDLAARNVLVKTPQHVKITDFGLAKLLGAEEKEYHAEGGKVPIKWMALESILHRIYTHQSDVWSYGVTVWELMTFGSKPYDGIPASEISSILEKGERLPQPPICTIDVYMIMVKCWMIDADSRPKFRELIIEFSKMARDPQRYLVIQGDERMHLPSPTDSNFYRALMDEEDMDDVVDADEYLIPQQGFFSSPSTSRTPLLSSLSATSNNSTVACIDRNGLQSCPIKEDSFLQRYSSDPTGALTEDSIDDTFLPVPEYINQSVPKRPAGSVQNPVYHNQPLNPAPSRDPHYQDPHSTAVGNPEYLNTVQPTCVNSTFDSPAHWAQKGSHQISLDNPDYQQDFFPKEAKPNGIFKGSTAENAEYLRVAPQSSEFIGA

EGFR (del746-750) = EGFR (del746-750) (Homo sapiens, UniProt P00533, DEL746-750); test: Lance assay, EGFR (del746-750); conditions: biochemical Lance assay
Sequence of EGFR (del746-750) (P00533 with tags, fused parts or gaps DEL746-750): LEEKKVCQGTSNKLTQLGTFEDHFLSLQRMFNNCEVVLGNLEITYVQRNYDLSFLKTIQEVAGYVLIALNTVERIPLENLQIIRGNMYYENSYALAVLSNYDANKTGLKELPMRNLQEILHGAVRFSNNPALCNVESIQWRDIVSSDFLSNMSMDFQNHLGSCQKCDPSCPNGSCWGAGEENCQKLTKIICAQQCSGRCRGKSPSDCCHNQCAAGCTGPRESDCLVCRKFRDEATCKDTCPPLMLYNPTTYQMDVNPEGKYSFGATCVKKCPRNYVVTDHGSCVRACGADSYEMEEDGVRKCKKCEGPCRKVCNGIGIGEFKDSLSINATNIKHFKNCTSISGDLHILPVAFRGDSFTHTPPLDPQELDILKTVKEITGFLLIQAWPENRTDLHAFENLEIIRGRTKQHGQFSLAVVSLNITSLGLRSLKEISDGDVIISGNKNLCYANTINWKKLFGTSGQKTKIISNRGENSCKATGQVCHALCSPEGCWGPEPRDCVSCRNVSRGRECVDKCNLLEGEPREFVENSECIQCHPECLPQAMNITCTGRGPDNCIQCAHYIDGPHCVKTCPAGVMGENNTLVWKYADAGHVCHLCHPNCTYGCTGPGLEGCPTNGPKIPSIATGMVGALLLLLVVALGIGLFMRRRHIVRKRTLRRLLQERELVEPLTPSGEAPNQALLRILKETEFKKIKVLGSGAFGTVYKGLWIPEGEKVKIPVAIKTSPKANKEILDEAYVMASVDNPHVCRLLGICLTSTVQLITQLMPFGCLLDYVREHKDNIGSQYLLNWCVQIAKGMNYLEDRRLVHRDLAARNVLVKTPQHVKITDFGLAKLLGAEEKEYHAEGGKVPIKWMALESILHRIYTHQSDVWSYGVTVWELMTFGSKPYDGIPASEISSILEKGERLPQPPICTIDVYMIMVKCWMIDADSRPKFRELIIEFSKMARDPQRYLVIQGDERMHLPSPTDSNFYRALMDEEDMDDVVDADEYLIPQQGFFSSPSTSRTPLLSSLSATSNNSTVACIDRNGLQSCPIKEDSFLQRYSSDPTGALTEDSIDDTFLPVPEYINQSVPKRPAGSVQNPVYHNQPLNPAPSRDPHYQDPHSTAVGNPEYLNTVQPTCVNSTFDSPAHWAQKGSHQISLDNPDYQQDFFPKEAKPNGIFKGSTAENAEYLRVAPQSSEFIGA

EGFR L858R T790M Ba/F3 = test: CellTiter-Glo cell viability, EGFR L858R T790M Ba/F3; format: cell-based; conditions: Mus musculus, BaF3, 72 h, read-out: EGFR L858R T790M Ba/F3 CTG IC50 /
Method: as §1

[2] = test system: Her2 Exon 20 InsYVMA Ba/F3; test: CellTiter-Glo cell viability, Her2 Exon 20 InsYVMA Ba/F3; format: cell-based; conditions: Mus musculus, BaF3, 72 h, read-out: Her2 Exon 20 InsYVMA Ba/F3 CTG IC50
Method: as §1

EGFR L858R Ba/F3 = test: CellTiter-Glo cell viability, EGFR L858R Ba/F3; format: cell-based; conditions: Mus musculus, BaF3, 72 h, read-out: EGFR L858R Ba/F3 CTG IC50 /
Method: as §1

H1975 = test: CellTiter-Glo cell viability, H1975; format: cell-based; conditions: Homo sapiens, NCI-H1975, 72 h, read-out: H1975 CTG IC50
Method: as §1

Cuto-17 = test: CellTiter-Glo cell viability, Cuto-17; format: cell-based; conditions: CUTO17, 72 h, read-out: Cuto-17 CTG IC50
Method: as §1

HER2 INS YVMA = target: T1, HER2 INS YVMA (Homo sapiens, UniProt P04626, INS775YVMA); test: Lance Kinase Activity Assay, Her2 Exon 20 InsYVMA; conditions: biochemical Lance assay
T1 construct: purchased DPF
T1 sequence (P04626 with tags, fused parts or gaps INS775YVMA): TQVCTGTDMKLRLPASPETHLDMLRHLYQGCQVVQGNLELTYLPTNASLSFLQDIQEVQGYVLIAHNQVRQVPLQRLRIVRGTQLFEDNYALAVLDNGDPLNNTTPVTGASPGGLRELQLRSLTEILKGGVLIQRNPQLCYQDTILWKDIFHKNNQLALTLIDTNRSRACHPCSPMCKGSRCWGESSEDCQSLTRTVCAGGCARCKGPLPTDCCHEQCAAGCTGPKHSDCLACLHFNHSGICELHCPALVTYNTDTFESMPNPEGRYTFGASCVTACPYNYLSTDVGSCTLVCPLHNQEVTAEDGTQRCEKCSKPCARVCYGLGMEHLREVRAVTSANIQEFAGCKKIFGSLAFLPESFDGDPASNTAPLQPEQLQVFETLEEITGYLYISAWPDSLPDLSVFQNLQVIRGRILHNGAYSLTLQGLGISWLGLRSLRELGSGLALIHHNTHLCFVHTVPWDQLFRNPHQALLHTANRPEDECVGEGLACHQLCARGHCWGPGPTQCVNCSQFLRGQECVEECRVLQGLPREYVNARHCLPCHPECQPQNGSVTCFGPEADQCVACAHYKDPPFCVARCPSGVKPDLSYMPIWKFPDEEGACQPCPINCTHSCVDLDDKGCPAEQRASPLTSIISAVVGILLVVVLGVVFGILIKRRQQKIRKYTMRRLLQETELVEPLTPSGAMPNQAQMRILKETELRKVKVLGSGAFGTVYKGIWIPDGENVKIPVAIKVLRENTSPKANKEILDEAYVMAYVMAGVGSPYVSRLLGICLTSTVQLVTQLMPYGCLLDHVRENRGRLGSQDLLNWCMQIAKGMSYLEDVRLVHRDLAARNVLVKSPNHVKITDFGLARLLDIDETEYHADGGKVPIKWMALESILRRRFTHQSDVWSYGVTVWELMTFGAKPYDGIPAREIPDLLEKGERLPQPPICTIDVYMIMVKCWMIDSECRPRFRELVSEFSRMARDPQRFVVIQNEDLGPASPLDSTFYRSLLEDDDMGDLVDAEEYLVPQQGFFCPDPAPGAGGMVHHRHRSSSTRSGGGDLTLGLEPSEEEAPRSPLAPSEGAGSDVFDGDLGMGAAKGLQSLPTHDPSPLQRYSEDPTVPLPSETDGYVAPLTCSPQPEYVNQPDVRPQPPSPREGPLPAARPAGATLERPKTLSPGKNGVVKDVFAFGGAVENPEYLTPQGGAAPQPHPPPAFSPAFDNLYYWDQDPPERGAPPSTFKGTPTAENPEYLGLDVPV
Method: This protocol describes how the Lance Kinase Activity Assay was performed to determine IC50 values of compounds of general formula (I) against HER2 INS YVMA. The principle behind this enzymatic assay is based upon the phosphorylation of the Ulight-peptide substrate. It is detected by using a specific EU-labeled anti-phospho peptide antibody. The binding of the Eu labeled anti-phospho peptide antibody to the phosphorylated ULight labeled peptide gives rise to a FRET-signal. Binding of an inhibitor to the kinase prevents phosphorylation of the Ulight-substrate, resulting in a loss of FRET. In table 2 is summarized the relevant information for the LANCE assay. Table 2: Reagents, stock concentrations and final assay concentrations for Her2 INS YVMA.
The compounds of general formula (I) summarized in Table 3 were serial diluted from a 10 mM DMSO stock solution 1:3 over 8 steps in a total volume of 20 µl. For every sample, 8 µl of kinase-substrate mix was transferred into a suitable assay plate (e.g. Corning #3673). Compound was added via pintool transfer (10nl/well) using a Biomek FX robot (BeckmanCoulter). Reaction was started by addition of 2µl ATP working solution and mixed using variomag teleshaker (Thermo Fischer Scientific). After 1 h incubation at room temperature the reaction was stopped with 10µl detection mix containing the Eu-labeled phosphospecific antibody and 10mM EDTA. After a second incubation period of 1 h at room temperature the FRET signal was measured at 340 nm excitation, 665 nm and 615 nm emission (for the ULight-substrate and Eu-AB, respectively) with an Envision spectrophotometer (Perkin Elmer, Waltham, MA, USA) with 50 µs delay and 300 µs integration time. IC50 values were determined from the sigmoidal dose response curves with the software Quattro Workflow (Quattro GmbH, Munich, Germany).

A431 = test: CellTiter-Glo cell viability, A431; format: cell-based; conditions: Homo sapiens, A-431, 72 h, read-out: A431 CTG IC50
Method: as §1

Sequence of EGFR T790M L858R (P00533 25-1210 T790M/L858R): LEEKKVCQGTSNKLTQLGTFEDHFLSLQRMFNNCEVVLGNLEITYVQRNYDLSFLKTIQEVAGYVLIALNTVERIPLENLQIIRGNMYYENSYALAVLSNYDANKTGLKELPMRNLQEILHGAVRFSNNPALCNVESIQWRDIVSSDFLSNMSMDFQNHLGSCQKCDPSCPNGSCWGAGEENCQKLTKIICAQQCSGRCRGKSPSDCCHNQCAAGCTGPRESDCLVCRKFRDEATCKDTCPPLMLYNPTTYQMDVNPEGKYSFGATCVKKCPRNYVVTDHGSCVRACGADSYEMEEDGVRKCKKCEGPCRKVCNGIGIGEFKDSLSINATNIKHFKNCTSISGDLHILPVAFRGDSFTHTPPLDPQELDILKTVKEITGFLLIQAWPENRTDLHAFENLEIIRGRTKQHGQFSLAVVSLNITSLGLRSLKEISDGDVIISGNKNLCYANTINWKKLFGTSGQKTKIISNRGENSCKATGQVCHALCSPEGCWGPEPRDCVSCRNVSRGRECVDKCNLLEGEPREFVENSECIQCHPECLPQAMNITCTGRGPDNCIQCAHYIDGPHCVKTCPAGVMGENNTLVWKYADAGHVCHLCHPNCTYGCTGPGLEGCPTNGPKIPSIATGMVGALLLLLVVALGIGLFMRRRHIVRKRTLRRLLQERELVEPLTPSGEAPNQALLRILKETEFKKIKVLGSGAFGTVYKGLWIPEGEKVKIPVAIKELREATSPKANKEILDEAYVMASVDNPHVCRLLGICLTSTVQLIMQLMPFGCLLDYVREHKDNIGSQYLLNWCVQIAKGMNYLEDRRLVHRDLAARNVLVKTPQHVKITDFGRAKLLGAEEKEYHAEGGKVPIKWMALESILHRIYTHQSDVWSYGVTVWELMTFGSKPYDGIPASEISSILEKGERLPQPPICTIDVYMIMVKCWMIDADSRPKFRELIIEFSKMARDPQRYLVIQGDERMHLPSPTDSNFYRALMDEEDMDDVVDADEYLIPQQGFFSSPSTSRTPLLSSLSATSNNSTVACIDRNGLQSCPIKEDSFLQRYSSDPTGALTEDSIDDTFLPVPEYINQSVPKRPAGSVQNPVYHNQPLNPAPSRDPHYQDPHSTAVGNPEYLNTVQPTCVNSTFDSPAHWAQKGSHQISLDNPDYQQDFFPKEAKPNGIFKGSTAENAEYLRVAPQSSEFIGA

IC50 (EGFR L858R) [nM]	IC50 (EGFR T790M L858R) [nM]	IC50 [1] [nM]	IC50 (EGFR vIII Ba/F3) [nM]	IC50 (EGFR wt) [nM]	IC50 (EGFR (del746-750)) [nM]	IC50 (EGFR L858R T790M Ba/F3) [nM]	IC50 [2] [nM]	IC50 (EGFR L858R Ba/F3) [nM]	IC50 (HER2 INS YVMA) [nM]	IC50 (A431) [nM]	SMILES	IC50 (H1975) [nM]	IC50 (Cuto-17) [nM]
≤ 50	≤ 50	50 to 100	≤ 50	≤ 50	≤ 50	100 to 500	100 to 500	≤ 50	100 to 500	1000 to 10000	C=CC(=O)Nc1cc(-c2c(-c3cnn(C)c3)[nH]c3ncc(-c4cnn(C)c4)cc23)ccc1C [Example 26, N-(5-(2,5-bis(1-methyl-1H-pyrazol-4-yl)-1H-pyrrolo[2,3-b]pyridin-3-yl)-2-methylphenyl)acrylamide 2,2,2-trifluoroacetate]	–	–
≤ 50	50 to 100	100 to 500	50 to 100	≤ 50	≤ 50	50 to 100	100 to 500	≤ 50	100 to 500	1000 to 10000	C=CC(=O)Nc1cc(-c2c(-c3cn(C)cn3)[nH]c3ncc(C(=O)OC(C)C)c(C)c23)ccc1C [Example 25, isopropyl 3-(3-acrylamido-4-methylphenyl)-4-methyl-2-(1-methyl-1 H-imidazol-4-yl)-1H-pyrrolo[2,3-b]pyridine-5-carboxylate]	–	–
≤ 50	≤ 50	50 to 100	50 to 100	≤ 50	≤ 50	≤ 50	100 to 500	≤ 50	≤ 50	1000 to 10000	C=CC(=O)Nc1cc(-c2c(-c3cnn(CCN(C)C)c3)[nH]c3ncc(C(=O)OC(C)C)c(C)c23)ccc1C [Example 15, isopropyl 3-(3-acrylamido-4-methylphenyl)-2-(1-(2-(dimethylamino)ethyl)-1 H-pyrazol-4-yl)-4-methyl-1 H-pyrrolo[2,3-b]pyridine-5-carboxylate]	100 to 500	100 to 500
≤ 50	≤ 50	100 to 500	100 to 500	≤ 50	≤ 50	100 to 500	500 to 1000	≤ 50	100 to 500	1000 to 10000	C=CC(=O)Nc1cc(-c2c(-c3cnn(C)c3)[nH]c3ncc(-c4cn(C)nc4C)cc23)ccc1C [Example 30, N-(5-(5-(1,3-dimethyl-1H-pyrazol-4-yl)-2-(1-methyl-1 H-pyrazol-4-yl)-1 H-pyrrolo[2,3-b]pyridin-3-yl)-2-methylphenyl)acrylamide]	–	–
≤ 50	≤ 50	100 to 500	≤ 50	≤ 50	≤ 50	100 to 500	500 to 1000	≤ 50	100 to 500	1000 to 10000	C=CC(=O)Nc1cc(-c2c(-c3cnn(C)c3)[nH]c3ncc(-c4ccnn4C)cc23)ccc1C [Example 27, N-(2-methyl-5-(2-(1-methyl-1H-pyrazol-4-yl)-5-(-methyl-1 H-pyrazol-5-yl)-1 H-pyrrolo[2,3-b]pyridin-3-yl)phenyl)acrylamide]	–	–

SMILES	IC50 (EGFR L858R) [nM]	IC50 (EGFR T790M L858R) [nM]	IC50 [1] [nM]	IC50 (EGFR vIII Ba/F3) [nM]	IC50 (EGFR wt) [nM]	IC50 (EGFR (del746-750)) [nM]	IC50 (EGFR L858R T790M Ba/F3) [nM]	IC50 [2] [nM]	IC50 (EGFR L858R Ba/F3) [nM]	IC50 (HER2 INS YVMA) [nM]	IC50 (A431) [nM]	IC50 (H1975) [nM]	IC50 (Cuto-17) [nM]
C=CC(=O)Nc1cc(-c2c(-c3cnn(C)c3)[nH]c3ncc(OCC(C)C)cc23)ccc1C [Example 4, N-(5-(5-isobutoxy-2-(1-methyl-1H-pyrazol-4-yl)-1H-pyrrolo[2,3-b]pyridin-3-yl)-2-methylphenyl)acrylamide 2,2,2-trifluoroacetate]	≤ 50	50 to 100	100 to 500	≤ 50	≤ 50	≤ 50	≤ 50	100 to 500	≤ 50	50 to 100	1000 to 10000	100 to 500	100 to 500
